Results from ChEMBL document CHEMBL1275453, “Resistance trends of the Bacteroides fragilis group over a 10-year period, 1997 to 2006, in Madrid, Spain” (2008).
Values after ≈ are worked out from the molar mass of the structure shown.

How the values were obtained:
Assay type in all cases: functional
[1] = test system: Bacteroides fragilis; assay: Antibacterial activity against Bacteroides fragilis isolate by agar dilution method in presence of clavulanate
[2] = test system: Bacteroides caccae; assay: Antibacterial activity against Bacteroides caccae assessed as percent resistant isolates by agar dilution method in presence of clavulanate
[3] = test system: Bacteroides fragilis; assay: Antibacterial activity against Bacteroides fragilis assessed as percent resistant isolates by agar dilution method in presence of clavulanate
[4] = test system: Bacteroides uniformis; assay: Antibacterial activity against Bacteroides uniformis isolate by agar dilution method in presence of clavulanate
[5] = test system: Bacteroides caccae; assay: Antibacterial activity against Bacteroides caccae isolate by agar dilution method in presence of clavulanate
[6] = test system: Phocaeicola vulgatus; assay: Antibacterial activity against Bacteroides vulgatus isolate by agar dilution method in presence of clavulanate
[7] = test system: Bacteroides uniformis; assay: Antibacterial activity against Bacteroides uniformis assessed as percent resistant isolates by agar dilution method in presence of clavulanate
[8] = test system: Phocaeicola vulgatus; assay: Antibacterial activity against Bacteroides vulgatus assessed as percent resistant isolates by agar dilution method in presence of clavulanate
[9] = test system: Bacteroides thetaiotaomicron; assay: Antibacterial activity against Bacteroides thetaiotaomicron isolate by agar dilution method in presence of clavulanate
[10] = test system: Bacteroides eggerthii; assay: Antibacterial activity against Bacteroides eggerthii isolate by agar dilution method in presence of clavulanate
[11] = test system: Bacteroides sp.; assay: Antibacterial activity against Bacteroides spp. assessed as percent resistant isolates by agar dilution method in presence of clavulanate; conditions: pooled result: one value given for 4 cell lines, strains, targets or settings
[12] = test system: Parabacteroides merdae; assay: Antibacterial activity against Bacteroides merdae isolate by agar dilution method in presence of clavulanate
[13] = test system: Parabacteroides distasonis; assay: Antibacterial activity against Bacteroides distasonis isolate by agar dilution method in presence of clavulanate
[14] = test system: Parabacteroides distasonis; assay: Antibacterial activity against Bacteroides distasonis assessed as percent resistant isolates by agar dilution method in presence of clavulanate
[15] = test system: Bacteroides thetaiotaomicron; assay: Antibacterial activity against Bacteroides thetaiotaomicron assessed as percent resistant isolates by agar dilution me in presence of clavulanate thod
[16] = test system: Bacteroides stercoris; assay: Antibacterial activity against Bacteroides stercoris isolate by agar dilution method in presence of clavulanate
[17] = test system: Bacteroides sp.; assay: Antibacterial activity against Bacteroides spp. isolate by agar dilution method in presence of clavulanate
[18] = test system: Bacteroides ovatus; assay: Antibacterial activity against Bacteroides ovatus assessed as percent resistant isolates by agar dilution method in presence of clavulanate
[19] = test system: Bacteroides ovatus; assay: Antibacterial activity against Bacteroides ovatus isolate by agar dilution method in presence of clavulanate
[20] = test system: Bacteroides fragilis; assay: Antibacterial activity against Bacteroides fragilis assessed as percent resistant isolates by agar dilution method
[21] = test system: Bacteroides ovatus; assay: Antibacterial activity against Bacteroides ovatus assessed as percent resistant isolates by agar dilution method
[22] = test system: Bacteroides fragilis; assay: Antibacterial activity against Bacteroides fragilis assessed as percent resistant isolates
[23] = test system: Phocaeicola vulgatus; assay: Antibacterial activity against Bacteroides vulgatus assessed as percent resistant isolates by agar dilution method
[24] = test system: Bacteroides eggerthii; assay: Antibacterial activity against Bacteroides eggerthii isolate by agar dilution method
[25] = test system: Bacteroides caccae; assay: Antibacterial activity against Bacteroides caccae assessed as percent resistant isolates by agar dilution method
[26] = test system: Bacteroides sp.; assay: Antibacterial activity against Bacteroides spp. isolate by agar dilution method
[27] = test system: Phocaeicola vulgatus; assay: Antibacterial activity against Bacteroides vulgatus assessed as percent resistant isolates
[28] = test system: Phocaeicola vulgatus; assay: Antibacterial activity against Bacteroides vulgatus isolate by agar dilution method
[29] = test system: Bacteroides thetaiotaomicron; assay: Antibacterial activity against Bacteroides thetaiotaomicron isolate by agar dilution method
[30] = test system: Parabacteroides merdae; assay: Antibacterial activity against Bacteroides merdae isolate by agar dilution method
[31] = test system: Parabacteroides distasonis; assay: Antibacterial activity against Bacteroides distasonis assessed as percent resistant isolates by agar dilution method
[32] = test system: Parabacteroides distasonis; assay: Antibacterial activity against Bacteroides distasonis isolate by agar dilution method
[33] = test system: Bacteroides stercoris; assay: Antibacterial activity against Bacteroides stercoris assessed as percent resistant isolates by agar dilution method; conditions: pooled result: one value given for 4 cell lines, strains, targets or settings
[34] = test system: Bacteroides uniformis; assay: Antibacterial activity against Bacteroides uniformis assessed as percent resistant isolates by agar dilution method
[35] = test system: Bacteroides uniformis; assay: Antibacterial activity against Bacteroides uniformis isolate by agar dilution method
[36] = test system: Bacteroides caccae; assay: Antibacterial activity against Bacteroides caccae isolate by agar dilution method
[37] = test system: Bacteroides thetaiotaomicron; assay: Antibacterial activity against Bacteroides thetaiotaomicron assessed as percent resistant isolates by agar dilution method
[38] = test system: Bacteroides ovatus; assay: Antibacterial activity against Bacteroides ovatus isolate by agar dilution method
[39] = test system: Bacteroides stercoris; assay: Antibacterial activity against Bacteroides stercoris isolate by agar dilution method

CC1(C)S[C@@H]2[C@H](NC(=O)[C@H](N)c3ccc(O)cc3)C(=O)N2[C@H]1C(=O)O [AMOXICILLIN]
MIC50 [1]: 1 µg/mL
MIC90 [1]: 8 µg/mL
Activity [2]: 20%
Activity [3]: 6.2%
MIC50 [4]: 1 µg/mL
MIC90 [4]: 16 µg/mL
MIC50 [5]: 2 µg/mL
MIC90 [5]: 16 µg/mL
MIC50 [6]: 2 µg/mL
MIC90 [6]: 16 µg/mL
Activity [7]: 12.3%
Activity [8]: 21.3%
MIC50 [9]: 2 µg/mL
MIC90 [9]: 16 µg/mL
MIC50 [10]: 2 µg/mL
MIC90 [10]: 16 µg/mL
Activity [11]: 19.6%
MIC50 [12]: 2 µg/mL
MIC90 [12]: 16 µg/mL
MIC50 [13]: 4 µg/mL
MIC90 [13]: 16 µg/mL
Activity [14]: 16.3%
Activity [15]: 4.9%
MIC50 [16]: 2 µg/mL
MIC90 [16]: 16 µg/mL
MIC50 [17]: 2 µg/mL
MIC90 [17]: 16 µg/mL
Activity [18]: 17.1%
MIC50 [19]: 1 µg/mL
MIC90 [19]: 16 µg/mL

COc1c(N2C[C@@H]3CCCN[C@@H]3C2)c(F)cc2c(=O)c(C(=O)O)cn(C3CC3)c12 [MOXIFLOXACIN]
Activity [20]: 9.7%
Activity [21]: 24.4%
Activity [22]: 27.3%
Activity [23]: 17%
MIC50 [24]: 2 µg/mL (≈ 4.98 µM)
MIC90 [24]: 16 µg/mL (≈ 39.9 µM)
Activity [25]: 22.2%
MIC50 [26]: 2 µg/mL (≈ 4.98 µM)
MIC90 [26]: 16 µg/mL (≈ 39.9 µM)
Activity [27]: 54.7%
MIC50 [28]: 2 µg/mL (≈ 4.98 µM)
MIC90 [28]: 16 µg/mL (≈ 39.9 µM)
MIC50 [29]: 2 µg/mL (≈ 4.98 µM)
MIC90 [29]: 16 µg/mL (≈ 39.9 µM)
MIC50 [30]: 2 µg/mL (≈ 4.98 µM)
MIC90 [30]: 16 µg/mL (≈ 39.9 µM)
Activity [31]: 18.6%
MIC50 [32]: 1 µg/mL (≈ 2.49 µM)
MIC90 [32]: 16 µg/mL (≈ 39.9 µM)
Activity [33]: 28.3%
Activity [34]: 24.5%
MIC50 [35]: 2 µg/mL (≈ 4.98 µM)
MIC90 [35]: 32 µg/mL (≈ 79.7 µM)
MIC50 [36]: 2 µg/mL (≈ 4.98 µM)
MIC90 [36]: 32 µg/mL (≈ 79.7 µM)
Activity [37]: 17%
MIC50 [38]: 2 µg/mL (≈ 4.98 µM)
MIC90 [38]: 32 µg/mL (≈ 79.7 µM)
MIC50 [39]: 2 µg/mL (≈ 4.98 µM)
MIC90 [39]: 16 µg/mL (≈ 39.9 µM)
